Reference: US20230399312A1, “SUBSTITUTED PYRIMIDINES AND METHODS OF USE” (THERAVANCE BIOPHARMA R&D IP, LLC, priority 2020, published 2023)

Experiments:
[1] = tested on: TGF-β-stimulated SMAD3 phosphorylation in BEAS-2B cells; experiment: Cellular ALK5 potency assay, inhibition of TGF-β stimulated pSMAD3 formation in BEAS-2B cells; type: cell-based; settings: Homo sapiens, pSMAD3, TGF-β 10 ng/mL, read-out: BEAS2B pIC50 (converted)
Method in brief: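 Cells were seeded overnight, rinsed into HEPES/BSA-supplemented HBSS, and dosed with serially diluted compound for 1 h at 37 °C, 5% CO2. TGF-β stimulation (10 ng/mL final) followed for 30 min, then lysis and AlphaLISA pSMAD3 measurement; potency reported as pIC50.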

[2] = molecular target: T1, recombinant human ALK5 (TGF-βR1) protein (Homo sapiens, UniProt P36897); experiment: Biochemical ALK5 (TGF-βR1) assay to measure pKi (LANCE Ultra ULight kinase assay); settings: apparent pKi, converted from pIC50 by Cheng-Prusoff
T1 construct: purchased Life Technologies PR9075A
T1 sequence (P36897 34-503): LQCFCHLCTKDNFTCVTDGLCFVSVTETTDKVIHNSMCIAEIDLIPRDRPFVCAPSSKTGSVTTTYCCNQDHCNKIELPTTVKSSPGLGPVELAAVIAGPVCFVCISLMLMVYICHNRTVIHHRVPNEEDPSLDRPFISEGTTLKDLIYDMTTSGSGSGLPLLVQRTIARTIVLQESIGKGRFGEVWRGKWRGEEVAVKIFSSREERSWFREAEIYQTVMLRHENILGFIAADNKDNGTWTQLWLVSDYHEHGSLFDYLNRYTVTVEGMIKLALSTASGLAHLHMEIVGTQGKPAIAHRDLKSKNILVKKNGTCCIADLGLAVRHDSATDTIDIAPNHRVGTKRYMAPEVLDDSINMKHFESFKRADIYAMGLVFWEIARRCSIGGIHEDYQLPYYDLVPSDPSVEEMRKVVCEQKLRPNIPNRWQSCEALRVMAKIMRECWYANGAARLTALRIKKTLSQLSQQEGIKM
Method in brief: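 Enzyme preincubated with compound for 60 min at room temperature, then reacted with ATP (125 μM as 5× stock) for 60 min at 37 °C. Stopped with EDTA plus Eu-anti-phospho-Topoisomerase 2-alpha (Thr1342) antibody and read by TR-FRET at 665 nm. pIC50 from a 4-parameter fit, converted to pKi by Cheng-Prusoff.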

Row | Ki [2] [nM] | Compound | IC50 [1] [nM]
1 | 0.0398 to 0.316 | Cc1cccc(-c2nccc(Nc3ccnc(Nc4cccc(CN5C[C@@H](C)N[C@@H](C)C5)c4)n3)n2)n1 [Compound 519, N4-[2-(6-methyl-2-pyridyl)pyrimidin-4-yl]-N2-[3-[[rac-(3R,5S)-3,5-dimethylpiperazin-1-yl]methyl]phenyl]pyrimidine-2,4-diamine] | 25.1 to 158
2 | 0.0398 to 0.316 | Cc1cccc(-c2nccc(Nc3ccnc(Nc4ccc(CN5CCC(C(=O)OCC6CNC6)C5)cc4)n3)n2)n1 (centres unmarked) [Compound 518, azetidin-3-ylmethyl 1-[[4-[[4-[[2-(6-methyl-2-pyridyl)pyrimidin-4-yl]amino]pyrimidin-2-yl]amino]phenyl]methyl] pyrrolidine-3-carboxylate] | 25.1 to 158
3 | 0.0398 to 0.316 | Cc1cccc(-c2nccc(Nc3ccnc(Nc4ccc(NCCN5CCNCC5)cc4)n3)n2)n1 [Compound 157, N4-[2-(6-methyl-2-pyridyl)pyrimidin-4-yl]-N2-[4-(2-piperazin-1-ylethylamino)phenyl]pyrimidine-2,4-diamine] | 200 to 1260
4 | 0.0398 to 0.316 | Cc1cccc(-c2nccc(Nc3ccnc(Nc4ccc(N5CCN(C6CCNC6)CC5)cc4)n3)n2)n1 (centres unmarked) [Compound 429, N4-[2-(6-methyl-2-pyridyl)pyrimidin-4-yl]-N2-[4-(4-pyrrolidin-3-ylpiperazin-1-yl)phenyl]pyrimidine-2,4-diamine] | 200 to 1260
5 | 0.0398 to 0.316 | Cc1cccc(-c2nccc(Nc3ccnc(Nc4ccc(C)c(CN5CCNCC5)c4)n3)n2)n1 [Compound 247, N2-[4-methyl-3-(piperazin-1-ylmethyl)phenyl]-N4-[2-(6-methyl-2-pyridyl)pyrimidin-4-yl]pyrimidine-2,4-diamine] | 25.1 to 158
6 | 0.0398 to 0.316 | Cc1cccc(-c2nccc(Nc3ccnc(Nc4ccc(N5CCN[C@H](C(=O)O)C5)cc4)n3)n2)n1 [Compound 488, (2S)-4-[4-[[4-[[2-(6-methyl-2-pyridyl)pyrimidin-4-yl]amino]pyrimidin-2-yl]amino]phenyl]piperazine-2-carboxylic acid] | 200 to 1260
7 | 0.0398 to 0.316 | Cc1cccc(-c2nccc(Nc3ccnc(Nc4ccc(C(=O)OC[C@H]5CCCN5)nc4)n3)n2)n1 [Compound 577, [(2R)-pyrrolidin-2-yl]methyl 5-[[4-[[2-(6-methyl-2-pyridyl)pyrimidin-4-yl]amino]pyrimidin-2-yl]amino]pyridine-2-carboxylate] | 25.1 to 158
8 | 0.0398 to 0.316 | Cc1cccc(-c2nccc(Nc3ccnc(Nc4ccc(N5CCOCC5)cc4)n3)n2)n1 [Compound 475, N4-(2-(6-methylpyridin-2-yl)pyrimidin-4-yl)-N2-(4-morpholinophenyl)pyrimidine-2,4-diamine] | ≤ 20
9 | 0.0398 to 0.316 | COc1ccc(Nc2nccc(Nc3ccnc(-c4cccc(C)n4)n3)n2)cc1NC(=O)C1CCNCC1 [Compound 6, N-[2-methoxy-5-[[4-[[2-(6-methyl-2-pyridyl)pyrimidin-4-yl]amino]pyrimidin-2-yl]amino]phenyl]piperidine-4-carboxamide] | 25.1 to 158
10 | 0.0398 to 0.316 | Cc1cccc(-c2nc(Nc3ccnc(Nc4ccc(NC(=O)C5CNC5)cc4)n3)c3cccn3n2)n1 [Compound 1026, N-[4-[[4-[[2-(6-methyl-2-pyridyl)pyrrolo[2,1-f][1,2,4]triazin-4-yl]amino]pyrimidin-2-yl]amino]phenyl]azetidine-3-carboxamide] | 25.1 to 158
11 | 3.98 to 31.6 | Cc1ccc(O)cc1-c1nccc(Nc2ccnc(Nc3ccc(N4CCOCC4)cc3)n2)n1 [Compound 166, 4-methyl-3-[4-[[2-(4-morpholinoanilino)pyrimidin-4-yl]amino]pyrimidin-2-yl]phenol] | 25.1 to 158
12 | 0.0398 to 0.316 | Cc1cccc(-c2nccc(Nc3ccnc(Nc4ccc(CN5CCC(C(=O)OCC6CNC6)CC5)cc4)n3)n2)n1 [Compound 275, azetidin-3-ylmethyl 1-[[4-[[4-[[2-(6-methyl-2-pyridyl)pyrimidin-4-yl]amino]pyrimidin-2-yl]amino]phenyl]methyl] piperidine-4-carboxylate] | 25.1 to 158
13 | 0.0398 to 0.316 | Cc1cccc(-c2nccc(Nc3ccnc(Nc4ccc(N5CCN(Cc6ccccc6)CC5)cc4)n3)n2)n1 [Compound 27, N2-[4-(4-benzylpiperazin-1-yl)phenyl]-N4-[2-(6-methyl-2-pyridyl)pyrimidin-4-yl]pyrimidine-2,4-diamine] | 25.1 to 158
14 | 0.0398 to 0.316 | Cc1cccc(-c2nccc(Nc3ccnc(Nc4ccc(N5CCSCC5)cc4)n3)n2)n1 [Compound 8, N4-[2-(6-methyl-2-pyridyl)pyrimidin-4-yl]-N2-(4-thiomorpholinophenyl) pyrimidine-2,4-diamine] | 25.1 to 158
15 | 0.0398 to 0.316 | Cc1cccc(-c2nccc(Nc3ccnc(Nc4ccc(N5CCC(C(=O)O)CC5)cc4)n3)n2)n1 [Compound 71, 1-[4-[[4-[[2-(6-methyl-2-pyridyl)pyrimidin-4-yl]amino]pyrimidin-2-yl]amino]phenyl]piperidine-4-carboxylic acid] | 25.1 to 158
16 | 0.398 to 3.16 | Cc1cccc(-c2nccc(Nc3ccnc(Nc4ncc(C5=CCNC5)s4)n3)n2)n1 [Compound 609, N2-[5-(2,5-dihydro-1H-pyrrol-3-yl)thiazol-2-yl]-N4-[2-(6-methyl-2-pyridyl)pyrimidin-4-yl]pyrimidine-2,4-diamine] | 25.1 to 158
17 | 0.0398 to 0.316 | COC(=O)C1CNCCN1Cc1ccc(Nc2nccc(Nc3ccnc(-c4cccc(C)n4)n3)n2)cc1 (centres unmarked) [Compound 25, methyl 1-[[4-[[4-[[2-(6-methyl-2-pyridyl)pyrimidin-4-yl]amino]pyrimidin-2-yl]amino]phenyl]methyl] piperazine-2-carboxylate] | 25.1 to 158
18 | 0.0398 to 0.316 | Cc1cccc(-c2nccc(Nc3ccnc(Nc4ccc(N5CCCC(C(=O)O[C@@H]6CCNC6)C5)cc4)n3)n2)n1 (stereo partly drawn) [Compound 479, [(3R)-pyrrolidin-3-yl] 1-[4-[[4-[[2-(6-methyl-2-pyridyl)pyrimidin-4-yl]amino]pyrimidin-2-yl]amino]phenyl]piperidine-3-carboxylate] | 25.1 to 158
19 | 0.0398 to 0.316 | CCC(C)OC(=O)C1CN(c2ccc(Nc3nccc(Nc4ccnc(-c5cccc(C)n5)n4)n3)cc2)CCN1 (racemic) [Compound 192, [rac-(1R)-1-methylpropyl] 4-[4-[[4-[[2-(6-methyl-2-pyridyl)pyrimidin-4-yl]amino]pyrimidin-2-yl]amino]phenyl]piperazine-2-carboxylate] | 25.1 to 158
20 | 0.398 to 3.16 | Cc1cccc(-c2nccc(Nc3ccnc(Nc4cc(N)c5c(c4)OCCO5)n3)n2)n1 [Compound 191, N2-(5-amino-2,3-dihydro-1,4-benzodioxin-7-yl)-N4-[2-(6-methyl-2-pyridyl)pyrimidin-4-yl]pyrimidine-2,4-diamine] | 25.1 to 158
21 | 0.0398 to 0.316 | Cc1cccc(-c2nccc(Nc3ccnc(Nc4csc(C(=O)O[C@H]5CCNC5)c4)n3)n2)n1 [Compound 544, [(3S)-pyrrolidin-3-yl] 4-[[4-[[2-(6-methyl-2-pyridyl)pyrimidin-4-yl]amino]pyrimidin-2-yl]amino]thiophene-2-carboxylate] | 25.1 to 158
22 | 0.398 to 3.16 | Cc1cccc(-c2nccc(Nc3ccnc(Nc4ccc(NS(=O)(=O)N(C)C)cc4)n3)n2)n1 [Compound 371, 4-[[2-[4-(dimethylsulfamoylamino)anilino]pyrimidin-4-yl]amino]-2-(6-methyl-2-pyridyl)pyrimidine] | 25.1 to 158
